Consider seven compounds from US6589983B1, “Benzopyran derivative” (Nissan Chemical Industries, Ltd., priority 1999, dated 2003).

The structures appear in SMILES notation.

The subject of data set [1] is guinea-pig left atrium muscle. The data set can be described thus: Effects of compound on the functional refractory period in guinea-pig left atrium muscle. The settings on record: isolated atrium muscle, stimulated at 1 Hz, compound added cumulatively, 15 minutes per concentration, 36±1° C. An excerpt:
Effects of compound on the functional refractory period in guinea-pig left atrium muscle and right ventricular papillary muscle
Hearts were removed from guinea-pigs, and left atrium muscle or right ventricular papillary muscle were isolated therefrom in a Krebs-Henseleit solution aerated with 95% O2+5% CO2. The samples were stimulated electrically at a rate of 1 Hz and a voltage of 1.5 times of the threshold value reacted to stimulation (basic stimulation; S1) by using an electric stimulating apparatus. The contraction occurred at that time was recorded by a thermal stylus recorder via a FD pickup and a strain pressure amplifier. The functional refractory period is defined as the shortest time interval between S1 resulting from determinable contraction and an extra stimulation (S2). The time interval between S1 and S2 in the left atrium muscle sample was started from 150 msec, decreased in 10 msec steps until 100 msec, and thereafter 5 msec steps to the functional refractory period. For the right ventricular papillary muscle sample, it was started from 300 msec and decreased in 10 msec steps until the functional refractory period. Herein, S2 was set at twice of the threshold value which reacted to stimulation. The experimental temperature was 36±1° C. […] After determining the basic value before addition of the compound, the compound was added cumulatively, incubated for 15 minutes for respective concentration, and thereafter the functional refractory period was determined.

For orientation: melting point means the temperature of the solid-liquid transition. On to `CC(=O)Nc1cc2c(cc1[N+](=O)[O-])OC(C)(C)[C@H](O)[C@H]2NCCc1ccc([N+](=O)[O-])cc1` (stereo in doubt), for which the melting point was 211 to 213 °C (dec.). In the case of `CC(=O)Nc1cc2c(cc1[N+](=O)[O-])OC(C)(C)[C@H](O)[C@H]2NCCc1ccc(Cl)cc1` [compound 6], the “Prolongation effect on FRP EC20” value in data set [1] came out at 1.4 µM. Take `CC(=O)Nc1cc2c(cc1[N+](=O)[O-])OC(C)(C)[C@H](O)[C@H]2NCCc1ccc(O)cc1` [compound 4]: the “Prolongation effect on FRP EC20” value in data set [1] was 5.0 µM. The same measure, in the same setting: to `CC(=O)Nc1cc2c(cc1[N+](=O)[O-])OC(C)(C)[C@H](O)[C@H]2NCCc1ccc([N+](=O)[O-])cc1` [compound 8] belongs 1.8 µM; to `CC(=O)Nc1cc2c(cc1[N+](=O)[O-])OC(C)(C)[C@H](O)[C@H]2NCCc1ccccc1` [compound 1], 6.1 µM.

As to `COc1ccc(CCN[C@H]2c3cc(NC(C)=O)c([N+](=O)[O-])cc3OC(C)(C)[C@@H]2O)cc1` [compound 5], in data set [1], the “Prolongation effect on FRP EC20” value worked out at 5.5 µM.

Take `CC(=O)Nc1cc2c(cc1[N+](=O)[O-])OC(C)(C)[C@H](O)[C@H]2NCCCCc1ccccc1` [compound 3]: the “Prolongation effect on FRP EC20” value in data set [1] is 4.0 µM.
